Reference: patent publication US20260022143A1, “Cyclic Peptide Inhibitors of IL-23” (JANSSEN PHARMACEUTICA NV, priority 2022, published 2026)
Starred links: 1 amine or outer side, 2 acyl side, 3 side chain; linkers in the order of their positions; H or OH if unused. Positions of bridges follow the written chain, without caps; N, C: chain ends. Non-standard residues stand in square brackets, D forms with d. Residues, ends and D or L forms follow the SMILES beside them. *: point of attachment. X16 = C[N+](C)(C)Cc1cn(-c2ccc(C[C@H](N[*:1])C(=O)[*:2])cc2)nn1; Me3N+(CH2)2O(CH2)2O(CH2)2CO = C[N+](C)(C)CCOCCOCCC(=O)*; Trp(7-Me) = Cc1cccc2c(C[C@H](N)C(=O)O)c[nH]c12; X15 = CC(=O)N(C)C[C@H](N[*:1])C(=O)[*:2]; 2Nal = N[C@@H](Cc1ccc2ccccc2c1)C(=O)O; AEF = NCCOc1ccc(C[C@H](N)C(=O)O)cc1; dNMeY = CN[C@H](Cc1ccc(O)cc1)C(=O)O; 3Pal = N[C@@H](Cc1cccnc1)C(=O)O; Cit = NC(=O)NCCC[C@H](N)C(=O)O; Lys(Me) = CNCCCC[C@H](N)C(=O)O; αMeL = CC(C)C[C@](C)(N)C(=O)O; Pen = CC(C)(S)[C@H](N)C(=O)O; Thp = NC1(C(=O)O)CCOCC1; X3 = C[N+](C)(C)CCCCC*; Sar = CNCC(=O)O

Tests used:
[1] = target: T1, IL-23R (Homo sapiens, UniProt Q5VWK5); experiment: IL23R Reporter Assay; format: cell-based; conditions: HEK293 cells containing IL-23R, IL-12RP1 and STAT-inducible firefly luciferase reporter; 10 ng/mL IL-23 (EC90); 5 h at 37° C.; read-out: IL23R Reporter Assay
T1 construct: host or cells: HEK293
T1 sequence (Q5VWK5 24-629): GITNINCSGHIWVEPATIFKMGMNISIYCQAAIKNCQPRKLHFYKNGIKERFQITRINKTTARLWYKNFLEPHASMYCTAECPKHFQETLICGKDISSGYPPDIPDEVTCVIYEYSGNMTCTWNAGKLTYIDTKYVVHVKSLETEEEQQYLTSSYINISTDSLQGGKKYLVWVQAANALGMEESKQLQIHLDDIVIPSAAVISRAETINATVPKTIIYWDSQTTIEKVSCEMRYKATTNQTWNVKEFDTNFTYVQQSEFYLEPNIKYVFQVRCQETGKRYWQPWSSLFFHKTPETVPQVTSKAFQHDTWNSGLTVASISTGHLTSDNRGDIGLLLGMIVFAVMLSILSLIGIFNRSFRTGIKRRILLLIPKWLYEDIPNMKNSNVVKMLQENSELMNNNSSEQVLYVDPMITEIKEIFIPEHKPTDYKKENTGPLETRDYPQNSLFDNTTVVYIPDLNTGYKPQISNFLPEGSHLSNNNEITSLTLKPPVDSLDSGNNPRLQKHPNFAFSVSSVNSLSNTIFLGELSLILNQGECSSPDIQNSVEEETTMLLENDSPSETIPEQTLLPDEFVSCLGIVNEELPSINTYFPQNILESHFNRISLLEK

[2] = Exposed Polar Surface Area (EPSA); format: physicochemical; conditions: SFC on Chirex 3014 column; sample 1 mM DMSO stock; read-out: EPSA
Method in brief: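 Compounds, as 1 mM DMSO stock, were injected in duplicate onto an SFC Chirex 3014 column at 35 °C and eluted with a CO2/methanol (20 mM ammonium formate) gradient. EPSA values in Å^2 were derived from retention times using a linear fit to eight calibration standards, reinjected every 20 compounds.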

| SMILES | IC50 [1] | EPSA [2] |
| --- | --- | --- |
| CC(=O)N[C@H](CCCNC(=N)N)C(=O)N[C@@H]1C(=O)N[C@@H](CC(N)=O)C(=O)N[C@@H]([C@@H](C)O)C(=O)N[C@@H](Cc2c[nH]c3c(C)cccc23)C(=O)N[C@@H](CCCNC(N)=O)C(=O)N[C@H](C(=O)N[C@@H](Cc2ccc(OCCN)cc2)C(=O)N[C@@H](Cc2ccc3ccccc3c2)C(=O)N[C@@](C)(CC(C)C)C(=O)N[C@@H](CCC(=O)O)C(=O)N[C@@H](CC(N)=O)C(=O)N[C@H](Cc2c[nH]cn2)C(=O)N(C)[C@H](Cc2ccc(O)cc2)C(N)=O)C(C)(C)SSC1(C)C [compound 17, MeCO-r-Pen(3)-N-T-7MeW-Cit-Pen(3)-AEF-2Nal-aMeL-E-N-h-NMeDTyr-CONH2] (Ac-[dR][Pen]NT[Trp(7-Me)][Cit][Pen][AEF][2Nal][αMeL]EN[dH][dNMeY]-NH2; disulfide 2-7) | 38 nM | 186 A^2 |
| CC(=O)N(C)CCCC[C@@H]1NC(=O)[C@H](Cc2c[nH]c3c(C)cccc23)NC(=O)[C@H]([C@@H](C)O)NC(=O)[C@H](CC(=O)N(C)C)NC(=O)[C@@H](NC(=O)CCOCCOCC[N+](C)(C)C)C(C)(C)SSC(C)(C)[C@@H](C(=O)N[C@@H](Cc2ccc(-n3cc(C[N+](C)(C)C)nn3)cc2)C(=O)N[C@@H](Cc2ccc3ccccc3c2)C(=O)NC2(C(=O)N[C@@H](CCCCN(C)C(C)=O)C(=O)N[C@@H](CC(N)=O)C(=O)N[C@@H](Cc3cccnc3)C(=O)N(C)CC(=O)N(C)C)CCOCC2)NC1=O [compound 332, cPEG3aCO-Pen(3)-N(N(Me)2)-T-7MeW-K(NMeAc)-Pen(3)-F(4TzlTMA1)-2Nal-THP-K(NMeAc)-N-3Pya-Sar-CON(Me)2] ({Me3N+(CH2)2O(CH2)2O(CH2)2CO}-[Pen]D(NMe2)T[Trp(7-Me)][Lys(Me)](Ac)[Pen][X16][2Nal][Thp][Lys(Me)](Ac)N[3Pal][Sar]-NMe2; disulfide 1-6) | 1.2 nM | 158 A^2 |
| CC(=O)NCCCC[C@@H]1NC(=O)[C@H](Cc2c[nH]c3c(C)cccc23)NC(=O)[C@H]([C@@H](C)O)NC(=O)[C@H](CC(N)=O)NC(=O)[C@@H](NC(=O)CCOCCOCC[N+](C)(C)C)C(C)(C)SSC(C)(C)[C@@H](C(=O)N[C@@H](Cc2ccc(OCCN)cc2)C(=O)N[C@@H](Cc2ccc3ccccc3c2)C(=O)NC2(C(=O)N[C@@H](CCC(=O)O)C(=O)N[C@@H](CC(N)=O)C(=O)N[C@@H](Cc3cncc(C)c3)C(=O)N(C)CC(N)=O)CCOCC2)NC1=O [compound 506, cPEG3aCO-Pen(3)-N-T-7MeW-K(Ac)-Pen(3)-AEF-2Nal-THP-E-N-5MePyridinAla-Sar-CONH2] | 4.1 nM | 191 A^2 |
| CC(=O)NCCCC[C@@H]1NC(=O)[C@H](Cc2c[nH]c3c(C)cccc23)NC(=O)[C@H]([C@@H](C)O)NC(=O)[C@H](CC(=O)N(C)C)NC(=O)[C@@H](NC(=O)CCOCCOCC[N+](C)(C)C)C(C)(C)SSC(C)(C)[C@@H](C(=O)N[C@@H](Cc2ccc(OCCCCC[N+](C)(C)C)cc2)C(=O)N[C@@H](Cc2ccc3ccccc3c2)C(=O)NC2(C(=O)N[C@@H](CN(C)C(C)=O)C(=O)N[C@@H](CC(N)=O)C(=O)N[C@@H](Cc3cccnc3)C(=O)N(C)CC(=O)N(C)C)CCOCC2)NC1=O [compound 415, cPEG3aCO-Pen(3)-N(N(Me)2)-T-7MeW-K(Ac)-Pen(3)-TMAPF-2Nal-THP-Dap(NMeAc)-N-3Pya-Sar-CON(Me)2] ({Me3N+(CH2)2O(CH2)2O(CH2)2CO}-[Pen]D(NMe2)T[Trp(7-Me)]K(Ac)[Pen]Y(X3)[2Nal][Thp][X15]N[3Pal][Sar]-NMe2; disulfide 1-6 (inferred)) | 4.4 nM | 148 A^2 |
